This note sets out measurements from US12624044B2, “SMARCA degraders and uses thereof” (Kymera Therapeutics, Inc., priority 2019, dated 2026).

Where only a bound is given, the exact number is not on record here.

One experiment has as its target T1, SMARCA4 (Homo sapiens, UniProt P51532).
T1 construct: SMARCA2 and SMARCA4 protein degradation in MV4-11 cells; endogenous in cells; host or cells: MV4-11
As to the kind of experiment: SMARCA4 Western blot MV4-11 degradation. Type of experiment: cell-based. To be noted: 24 h; for Dmax: MV4-11, MV4-11 cells, read-out: SMARCA4 WB MV411 degradation 24 h: Average Dmax %; for DC50: MV4-11 cells, read-out: SMARCA4 WB MV411 degradation 24 h: Average external-Abs DC50. An outline of the steps:
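MV4-11 cells treated with compound for 24 h, lysed in RIPA with protease/phosphatase inhibitors, and SMARCA2 and SMARCA4 (BRG1) levels assessed by Western blot with β-actin loading control and LI-COR fluorescent read-out. Maximal degradation (Dmax %) after 24 h binned into letter codes.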
(In general: Immunoblotting shows a protein as a band on a membrane.)

The next experiment deals with SMARCA2 (Homo sapiens, UniProt P51531). Kind of experiment: MSD SMARCA2 degradation in A549 cell line. The settings on record: 24 h; for Dmax: A549, A549 cells; for DC50: A549 cells, read-out: SMARCA2 MSD A549 degradation 24 h: Average external-Abs DC50. Type of experiment: cell-based. An outline of the steps:
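A549 cells treated 24 h with compound at final 0.152-1000 nM (3-fold series, DMSO control). Lysates analyzed by MSD immunoassay using anti-SMARCA2/BRM detection and SULFO-TAG secondary antibodies; maximal degradation (Dmax %) reported as letter bins.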

T1 sequence (P51532 whole entry): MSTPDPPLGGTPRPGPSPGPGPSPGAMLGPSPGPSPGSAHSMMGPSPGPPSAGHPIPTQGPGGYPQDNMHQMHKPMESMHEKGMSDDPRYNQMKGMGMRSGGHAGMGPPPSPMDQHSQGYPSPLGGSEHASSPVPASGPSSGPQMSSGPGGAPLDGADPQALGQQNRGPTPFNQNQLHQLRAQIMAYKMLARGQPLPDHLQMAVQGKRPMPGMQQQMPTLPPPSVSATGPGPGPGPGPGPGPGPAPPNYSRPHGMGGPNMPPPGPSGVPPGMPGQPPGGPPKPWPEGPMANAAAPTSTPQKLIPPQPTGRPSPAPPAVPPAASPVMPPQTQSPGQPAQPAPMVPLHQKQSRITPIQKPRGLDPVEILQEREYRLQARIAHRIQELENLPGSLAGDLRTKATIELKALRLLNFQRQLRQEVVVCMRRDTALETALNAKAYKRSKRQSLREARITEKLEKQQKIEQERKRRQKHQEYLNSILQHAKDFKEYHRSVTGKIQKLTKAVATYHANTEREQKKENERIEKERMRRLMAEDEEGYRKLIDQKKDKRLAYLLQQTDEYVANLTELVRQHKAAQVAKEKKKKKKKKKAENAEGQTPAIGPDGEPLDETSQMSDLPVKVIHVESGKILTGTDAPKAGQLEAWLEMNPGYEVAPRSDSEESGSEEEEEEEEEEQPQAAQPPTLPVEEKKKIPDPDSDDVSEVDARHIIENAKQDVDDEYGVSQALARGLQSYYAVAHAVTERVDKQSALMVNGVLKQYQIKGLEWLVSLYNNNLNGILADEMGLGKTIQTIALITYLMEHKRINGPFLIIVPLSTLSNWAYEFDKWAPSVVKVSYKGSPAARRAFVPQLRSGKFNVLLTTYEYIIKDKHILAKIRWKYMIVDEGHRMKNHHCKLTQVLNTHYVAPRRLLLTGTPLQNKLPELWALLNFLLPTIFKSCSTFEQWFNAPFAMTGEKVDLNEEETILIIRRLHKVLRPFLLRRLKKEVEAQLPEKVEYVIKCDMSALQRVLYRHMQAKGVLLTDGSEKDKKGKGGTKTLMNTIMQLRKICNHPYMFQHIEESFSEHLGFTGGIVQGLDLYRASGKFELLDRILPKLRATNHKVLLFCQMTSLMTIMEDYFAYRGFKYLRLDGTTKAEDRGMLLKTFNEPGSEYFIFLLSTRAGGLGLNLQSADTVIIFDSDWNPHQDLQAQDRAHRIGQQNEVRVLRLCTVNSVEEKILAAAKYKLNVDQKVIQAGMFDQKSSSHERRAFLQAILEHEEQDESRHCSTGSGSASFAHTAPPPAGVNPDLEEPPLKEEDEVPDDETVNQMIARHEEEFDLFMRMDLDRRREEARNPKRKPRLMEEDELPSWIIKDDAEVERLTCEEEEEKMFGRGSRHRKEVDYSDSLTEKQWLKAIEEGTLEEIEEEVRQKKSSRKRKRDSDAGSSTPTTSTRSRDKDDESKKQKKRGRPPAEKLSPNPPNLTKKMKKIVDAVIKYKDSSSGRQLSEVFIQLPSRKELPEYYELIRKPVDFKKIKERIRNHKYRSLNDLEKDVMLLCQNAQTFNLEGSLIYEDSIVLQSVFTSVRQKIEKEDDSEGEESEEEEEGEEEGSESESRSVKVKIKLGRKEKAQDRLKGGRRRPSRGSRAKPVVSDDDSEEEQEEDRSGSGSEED
SMARCA2, sequence (P51531 whole entry): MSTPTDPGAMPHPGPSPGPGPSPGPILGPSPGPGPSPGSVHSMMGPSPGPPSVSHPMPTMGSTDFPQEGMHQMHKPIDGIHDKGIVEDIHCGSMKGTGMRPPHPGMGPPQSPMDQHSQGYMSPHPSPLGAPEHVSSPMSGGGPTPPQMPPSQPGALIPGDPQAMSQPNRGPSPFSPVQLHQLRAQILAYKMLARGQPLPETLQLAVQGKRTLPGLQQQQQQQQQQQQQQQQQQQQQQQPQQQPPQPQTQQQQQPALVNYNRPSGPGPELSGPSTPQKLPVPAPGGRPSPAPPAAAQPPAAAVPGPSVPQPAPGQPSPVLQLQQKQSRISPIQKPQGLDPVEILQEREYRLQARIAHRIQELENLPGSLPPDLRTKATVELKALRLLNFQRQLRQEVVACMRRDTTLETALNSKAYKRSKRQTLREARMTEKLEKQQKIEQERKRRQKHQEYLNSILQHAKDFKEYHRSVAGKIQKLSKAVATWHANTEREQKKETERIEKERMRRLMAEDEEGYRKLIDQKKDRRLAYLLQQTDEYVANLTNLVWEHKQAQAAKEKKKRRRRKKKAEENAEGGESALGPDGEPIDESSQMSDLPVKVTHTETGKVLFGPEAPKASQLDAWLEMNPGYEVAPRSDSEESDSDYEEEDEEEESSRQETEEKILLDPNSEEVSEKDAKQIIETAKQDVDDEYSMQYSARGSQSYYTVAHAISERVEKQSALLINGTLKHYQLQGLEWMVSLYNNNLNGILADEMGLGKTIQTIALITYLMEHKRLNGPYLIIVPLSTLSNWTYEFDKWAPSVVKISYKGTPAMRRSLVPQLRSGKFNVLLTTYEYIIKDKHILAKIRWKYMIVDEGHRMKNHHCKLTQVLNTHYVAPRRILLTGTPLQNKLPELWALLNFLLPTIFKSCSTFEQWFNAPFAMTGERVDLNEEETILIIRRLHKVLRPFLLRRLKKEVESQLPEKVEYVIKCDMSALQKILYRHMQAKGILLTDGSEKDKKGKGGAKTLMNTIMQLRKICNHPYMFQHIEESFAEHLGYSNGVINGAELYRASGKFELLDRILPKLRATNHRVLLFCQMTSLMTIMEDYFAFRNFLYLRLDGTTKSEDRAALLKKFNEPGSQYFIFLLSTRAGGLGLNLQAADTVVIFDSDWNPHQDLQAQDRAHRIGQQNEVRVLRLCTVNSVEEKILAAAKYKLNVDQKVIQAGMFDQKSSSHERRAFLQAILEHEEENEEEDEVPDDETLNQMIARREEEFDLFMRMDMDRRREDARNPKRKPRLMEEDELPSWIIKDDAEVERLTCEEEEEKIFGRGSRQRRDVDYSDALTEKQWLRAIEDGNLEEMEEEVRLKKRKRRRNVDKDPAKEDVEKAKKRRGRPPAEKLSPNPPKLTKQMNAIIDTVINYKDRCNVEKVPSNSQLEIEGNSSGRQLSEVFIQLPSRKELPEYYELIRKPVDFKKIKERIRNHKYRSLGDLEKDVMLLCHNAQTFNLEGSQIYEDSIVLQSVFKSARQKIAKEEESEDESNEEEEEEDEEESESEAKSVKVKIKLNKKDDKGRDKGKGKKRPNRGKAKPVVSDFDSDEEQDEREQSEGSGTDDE

As a reminder, the Dmax is the greatest extent of degradation seen. In general, DC50 refers to the midpoint of the concentration-degradation curve. Take `Cc1ncsc1-c1ccc(CNC(=O)[C@@H]2C[C@@H](O)CN2C(=O)[C@@H](NC(=O)N2CCC(N3CCC(c4cnc(N5C6CCC5CN(c5cc(-c7ccccc7O)nnc5N)C6)nc4)CC3)CC2)C(C)(C)C)cc1` [I-350, 4-(2-(3-(3-amino-6-(2-hydroxyphenyl)pyridazin-4-yl)-3,8-diazabicyclo [3.2.1]octan-8-yl)pyrimidin-5-yl)-N—((S)-1-((2S,4R)-4-hydroxy-2-((4-(4-methylthiazol-5-yl)benzyl)carbamoyl)pyrrolidin-1-yl)-3,3-dimethyl-1-oxobutan-2-yl)-[1,4′-bipiperidine]-1′-carboxamide]: at SMARCA4, the maximal degradation (Dmax) was under 50% and the DC50 is over 1000 nM. For the same compound, at SMARCA2, the Dmax is under 50% and the DC50 is over 1000 nM.

Regarding `Cc1ncsc1-c1ccc(CNC(=O)[C@@H]2C[C@@H](O)CN2C(=O)[C@@H](NC(=O)CCCCN2CCC(CN3CCC(Cn4cc(-c5cc(-c6ccccc6O)nnc5N)cn4)CC3)CC2)C(C)(C)C)cc1` [I-351], at SMARCA4, the maximal degradation (Dmax) is under 50% and the DC50 is over 1000 nM. Moreover, at SMARCA2, the Dmax was under 50% and the DC50 is over 1000 nM.

As to `Cc1ncsc1-c1ccc(CNC(=O)[C@@H]2C[C@@H](O)CN2C(=O)[C@@H](NC(=O)CCCCN2CCC(C(=O)N3CCC(Cn4cc(-c5cc(-c6ccccc6O)nnc5N)cn4)CC3)CC2)C(C)(C)C)cc1` [I-352], the Dmax on SMARCA4 and at SMARCA2 was under 50% each time. Besides, the DC50 on SMARCA4 and on SMARCA2 was over 1000 nM throughout.

Turning to `Cc1ncsc1-c1ccc(CNC(=O)[C@@H]2C[C@@H](O)CN2C(=O)[C@@H](NC(=O)c2ccc(-c3ccc(N4CCC(Cn5cc(-c6cc(-c7ccccc7O)nnc6N)cn5)CC4)cc3)cc2)C(C)(C)C)cc1` [I-353], the figures for the Dmax at SMARCA4 and at SMARCA2 were 70 to 90% and under 50%, respectively. The DC50 at SMARCA4 and on SMARCA2 was over 1000 nM in each case.

Take `Cc1ncsc1-c1ccc(CNC(=O)[C@@H]2C[C@@H](O)CN2C(=O)[C@@H](NC(=O)[C@H]2CC[C@H](N3CCC(c4cnc(N5C6CCC5CN(c5cc(-c7ccccc7O)nnc5N)C6)nc4)CC3)CC2)C(C)(C)C)cc1` [I-355]: the Dmax was 70 to 90% at SMARCA4 and over 90% on SMARCA2. The DC50 at SMARCA4 and at SMARCA2 was 100 to 500 nM each time.

On to `Cc1ncsc1-c1ccc(CNC(=O)[C@@H]2C[C@@H](O)CN2C(=O)[C@@H](NC(=O)[C@H]2C[C@H](N3CCC(c4cnc(N5C6CCC5CN(c5cc(-c7ccccc7O)nnc5N)C6)nc4)CC3)C2)C(C)(C)C)cc1` [I-356], for which the Dmax is over 90% at SMARCA4 and 70 to 90% at SMARCA2. Besides, the DC50 was under 100 nM at SMARCA4 and 100 to 500 nM at SMARCA2.

For the compound `Cc1ncsc1-c1ccc(CNC(=O)[C@@H]2C[C@@H](O)CN2C(=O)[C@@H](NC(=O)COCCCc2cnc(N3C4CCC3CN(c3cc(-c5ccccc5O)nnc3N)C4)nc2)C(C)(C)C)cc1` [I-357], on SMARCA4, the Dmax is over 90% and the DC50 is under 100 nM. At SMARCA2, the maximal degradation (Dmax) was over 90% and the half-maximal degradation concentration (DC50) lay in the range of 100 to 500 nM.

Turning to `Cc1ncsc1-c1ccc(CNC(=O)[C@@H]2C[C@@H](O)CN2C(=O)[C@@H](NC(=O)[C@H]2C[C@@H](N3CCC(n4cc(-c5cc(-c6ccccc6O)nnc5N)cn4)CC3)C2)C(C)(C)C)cc1` [I-358], the Dmax was over 90% on SMARCA4 and 70 to 90% on SMARCA2. The DC50 lay in the range of 100 to 500 nM on SMARCA4 and 501 to 1000 nM on SMARCA2.

Take `Cc1ncsc1-c1ccc(CNC(=O)[C@@H]2C[C@@H](O)CN2C(=O)[C@@H](NC(=O)[C@H]2C[C@H](N3CCC(n4cc(-c5cc(-c6ccccc6O)nnc5N)cn4)CC3)C2)C(C)(C)C)cc1` [I-359]: the Dmax at SMARCA4 and on SMARCA2 was under 50% in each case. For the same compound, the DC50 at SMARCA4 and on SMARCA2 was over 1000 nM each time.

With `Cc1ncsc1-c1ccc(CNC(=O)[C@@H]2C[C@@H](O)CN2C(=O)[C@@H](NC(=O)[C@H]2CC[C@@H](N3CCC(n4cc(-c5cc(-c6ccccc6O)nnc5N)cn4)CC3)CC2)C(C)(C)C)cc1` [I-360], on SMARCA4, the Dmax is 50 to 70% and the DC50 is over 1000 nM. Further, on SMARCA2, the Dmax is under 50% and the DC50 is over 1000 nM.

As to `Cc1ncsc1-c1ccc(CNC(=O)[C@@H]2C[C@@H](O)CN2C(=O)[C@@H](NC(=O)[C@H]2CC[C@H](N3CCC(n4cc(-c5cc(-c6ccccc6O)nnc5N)cn4)CC3)CC2)C(C)(C)C)cc1` [I-361], on SMARCA4, the maximal degradation (Dmax) is under 50% and the half-maximal degradation concentration (DC50) is over 1000 nM. For the same compound, at SMARCA2, the Dmax lay within 50 to 70% and the DC50 lay in the range of 501 to 1000 nM.

Turning to `Cc1ncsc1-c1ccc(CNC(=O)[C@@H]2C[C@@H](O)CN2C(=O)[C@@H](NC(=O)[C@H]2CC[C@@H](c3nccc(N4C5CCC4CN(c4cc(-c6ccccc6O)nnc4N)C5)n3)CC2)C(C)(C)C)cc1` [I-362], at SMARCA4, the Dmax was over 90% and the DC50 is under 100 nM. On SMARCA2, the Dmax was in the range of 70 to 90% and the DC50 is 501 to 1000 nM.

Consider `Cc1ncsc1-c1ccc(CNC(=O)[C@@H]2C[C@@H](O)CN2C(=O)[C@@H](NC(=O)[C@H]2CC[C@H](c3nccc(N4C5CCC4CN(c4cc(-c6ccccc6O)nnc4N)C5)n3)CC2)C(C)(C)C)cc1` [I-363], for which the Dmax on SMARCA4 and at SMARCA2 was over 90% in each case. Also, the values for the DC50 at SMARCA4 and at SMARCA2 were under 100 nM and 100 to 500 nM, respectively.

Take `Cc1ncsc1-c1ccc(CNC(=O)[C@@H]2C[C@@H](O)CN2C(=O)[C@@H](NC(=O)C[C@H]2CC[C@H](c3nccc(N4C5CCC4CN(c4cc(-c6ccccc6O)nnc4N)C5)n3)CC2)C(C)(C)C)cc1` [I-364]: at SMARCA4, the maximal degradation (Dmax) was over 90% and the DC50 is under 100 nM. Further, on SMARCA2, the Dmax was over 90% and the DC50 was in the range of 100 to 500 nM.

For the compound `Cc1ncsc1-c1ccc(CNC(=O)[C@@H]2C[C@@H](O)CN2C(=O)[C@@H](NC(=O)C[C@H]2CC[C@@H](c3nccc(N4C5CCC4CN(c4cc(-c6ccccc6O)nnc4N)C5)n3)CC2)C(C)(C)C)cc1` [I-365], on SMARCA4, the Dmax is over 90% and the 50% degradation concentration (DC50) is under 100 nM. Besides, on SMARCA2, the Dmax is over 90% and the DC50 was in the range of 100 to 500 nM.

As for `Cc1ncsc1-c1ccc(CNC(=O)[C@@H]2C[C@@H](O)CN2C(=O)[C@@H](NC(=O)CCCN2CCC(c3cnc(N4C5CCC4CN(c4cc(-c6ccccc6O)nnc4N)C5)nc3)CC2)C(C)(C)C)cc1` [I-382], on SMARCA4, the Dmax was under 50% and the 50% degradation concentration (DC50) is over 1000 nM. Besides, at SMARCA2, the Dmax is under 50% and the 50% degradation concentration (DC50) is over 1000 nM.

Take `Cc1ncsc1-c1ccc(CNC(=O)[C@@H]2C[C@@H](O)CN2C(=O)[C@@H](NC(=O)CCCCN2CCC(c3cnc(N4C5CCC4CN(c4cc(-c6ccccc6O)nnc4N)C5)nc3)CC2)C(C)(C)C)cc1` [I-383]: on SMARCA4, the Dmax is over 90% and the 50% degradation concentration (DC50) was over 1000 nM. At SMARCA2, the Dmax is under 50% and the 50% degradation concentration (DC50) is over 1000 nM.

In the case of `Cc1ncsc1-c1ccc(CNC(=O)[C@@H]2C[C@@H](O)CN2C(=O)[C@@H](NC(=O)C2CCN(Cc3cnc(N4C5CCC4CN(c4cc(-c6ccccc6O)nnc4N)C5)nc3)CC2)C(C)(C)C)cc1` [I-384], the DC50 on SMARCA4 is under 100 nM; at SMARCA2, 100 to 500 nM.

For the compound `Cc1ncsc1-c1ccc(CNC(=O)[C@@H]2C[C@@H](O)CN2C(=O)[C@@H](NC(=O)C2CN(Cc3cnc(N4C5CCC4CN(c4cc(-c6ccccc6O)nnc4N)C5)nc3)C2)C(C)(C)C)cc1` [I-385], at SMARCA4, the Dmax was over 90% and the half-maximal degradation concentration (DC50) is under 100 nM. Besides, on SMARCA2, the greatest degradation seen (Dmax) lay in the range of 50 to 70% and the DC50 lay within 501 to 1000 nM.

On to `Cc1ncsc1-c1ccc(CNC(=O)[C@@H]2C[C@@H](O)CN2C(=O)[C@@H](NC(=O)[C@@H]2CCN(Cc3cnc(N4C5CCC4CN(c4cc(-c6ccccc6O)nnc4N)C5)nc3)C2)C(C)(C)C)cc1` [I-386, (2S,4R)-1-((2S)-2-((3R)-1-((2-(3-(3-amino-6-(2-hydroxyphenyl)pyridazin-4-yl)-3,8-diazabicyclo[3.2.1]octan-8-yl)pyrimidin-5-yl)methyl)pyrrolidine-3-carboxamido)-3,3-dimethylbutanoyl)-4-hydroxy-N-(4-(4-methylthiazol-5-yl)benzyl)pyrrolidine-2-carboxamide], for which, on SMARCA4, the Dmax was over 90% and the DC50 was in the range of 100 to 500 nM. Besides, on SMARCA2, the Dmax was 50 to 70% and the DC50 lay within 501 to 1000 nM.

As for `Cc1ncsc1-c1ccc(CNC(=O)[C@@H]2C[C@@H](O)CN2C(=O)[C@@H](NC(=O)[C@H]2CCN(Cc3cnc(N4C5CCC4CN(c4cc(-c6ccccc6O)nnc4N)C5)nc3)C2)C(C)(C)C)cc1` [I-387], at SMARCA4, the Dmax was over 90% and the DC50 was in the range of 501 to 1000 nM. In addition, on SMARCA2, the Dmax is under 50% and the DC50 is over 1000 nM.

On to `Cc1ncsc1-c1ccc(CNC(=O)[C@@H]2C[C@@H](O)CN2C(=O)C(N(C)C(=O)C[C@H]2CC[C@H](N3CCC(c4cnc(N5C6CCC5CN(c5cc(-c7ccccc7O)nnc5N)C6)nc4)CC3)CC2)C(C)(C)C)cc1` (some centres unmarked) [I-388], for which, at SMARCA4, the greatest degradation seen (Dmax) lay in the range of 70 to 90% and the DC50 is under 100 nM. Further, at SMARCA2, the Dmax is over 90% and the half-maximal degradation concentration (DC50) fell in the range of 100 to 500 nM.
